This is an account of results in US8099262B2, “Estimation of clinical cut-offs” (priority 2004, dated 2012).

Experiment [1] has as its system HIV. Format: in vivo. The source says:
Further factors which may be taken into account when validating the model are the odds ratios determined using clinical cutoffs compared to those determined using biological cutoffs. These ratios represent the odds of being a responder in the group that is labeled resistant by the cutoffs divided by the odds of being a responder in the group that is labeled sensitive by the cutoffs. In this way it is possible to evaluate how well the cutoffs perform on a drug by drug basis. The further away that the odds ratio is from 1, the stronger the correlation between the resistance class and clinical outcome. The odds ratio as specified above yield numbers smaller than 1 as the odds of being a responder should be smaller in the higher resistance class. Put another way, the probability of response will decrease as the resistance increases. Additionally, if the odds ratio for the CCO is smaller than the odds ratio for the BCO, it can be concluded that the CCO is stronger correlated with clinical outcome and therefore gives a better prediction than the BCO.
A logistic regression model may be used to determine the odds ratio. The model used is the same as the logistic regression model described above except that the fold change in the model is replaced by the resistance class. The coefficient for the resistance class that is obtained from the model is the log (odds ratio). The advantage of using this model is that the odds ratio estimates can be adjusted for the baseline viral load and the cPSS score of the background regimen.
The columns headed CCO Odds Ratio and BCO Odds Ratio represent the odds of being a responder in the group that is labeled resistance by the cutoffs divided by the odds of being a responder in the group that is labeled sensitive by the cutoffs. For example, if there are four non-responders and one responder in the resistant group, and four responders and two non-responders in the sensitive group, the odds of being a responder in the resistant group is 1:4=0.25 and the odds of being a responder in the sensitive group is 4:2=2. […] The further away that the odds ratio is from 1, the stronger the correlation between the resistance class and clinical outcome.
The separation in groups (resistance/sensitive) can be done based on clinical cutoffs or biological cutoffs. This means that odds ratios based on clinical cutoffs (CCO) and odds ratios based on biological cutoffs (BCO) can be compared. If the odds ratio for the CCO is smaller than the odds ratio for the BCO, it can be concluded that the CCO gives a better prediction than the BCO.
In practice, a logistic regression model is used to determine the odds ratio. The model used is similar to logistic regression model described earlier except that the fold change in the model is replaced by the resistance class. The coefficient for the resistance class that is obtained from the model is the log (odds ratio). The advantage of using this model is that the odds ratio estimates can be adjusted for the baseline viral load and the cPSS score of the background regimen. […] In this case, a larger odds ratio indicates a stronger correlation with clinical outcome.

Experiment [2] deals with HIV. It counts as in vivo. Set-up: key to Modelled Lower Cutoff & Confidence Interval / Modelled Upper Cutoff & Confidence Interval: fold change (FC) matching VL drop at 20% and 80% loss of activity. To be noted: preferred embodiment of linear regression. The source says: In a preferred embodiment of the linear regression model, more factors are included in order to obtain a more refined prediction of viral load response. These factors include for example a sensitivity score per drug class in addition to the overall sensitivity score of the background treatment (cPSS), previous exposure to the drug (naïve (Yes/No), naïve to PIs, naïve to NRTI's, etc. . . . ). Furthermore, in the preferred embodiment, the fold change is transformed before inserting the figures into the model. The transformation to the fold change comprises a power-transformation ranging from FC^−3 to FC^1. In addition, a quadratic term in cPSS is preferably added.
The NRTI[naïve] value represents whether the patient is naïve to nucleoside RT inhibitors. If yes, value=1, if no, value=0. The PSS[NRTI} represents the phenotypic sensitivity score for NRTIs, i.e the number of active NRTIs in the background regimen for the patient.
Stage 3: Determine Fold change equivalent to VL drop at 20% and 80% loss of activity by inserting values for VL drop into the above equation and calculating FC. […]

For `CC(C)OC(=O)OCOP(=O)(CO[C@H](C)Cn1cnc2c(N)ncnc21)OCOC(=O)OC(C)C.O=C(O)/C=C/C(=O)O` [TDF], the “Test Data BCO Odds Ratio” value in the experiment with HIV [1] (test data, biological cutoffs) was determined as 0.570. For the same compound, the “Test Data CCO Odds Ratio” value in the experiment with HIV [1] (test data, clinical cutoffs) is reported as 0.228. For the same compound, the “Validation Data CCO Odds Ratio” value in the experiment on HIV [1] (validation data, clinical cutoffs) was 0.226. Moreover, in the experiment on HIV [2], the “Modelled Lower Cutoff & Confidence Interval” value turned out to be 1.0 and the “Modelled Upper Cutoff & Confidence Interval” value came out at 2.0.
